Results published in ChEMBL document CHEMBL4834463, “Synthesis and fungicidal activity of novel 2-(2-alkylthio-6-phenylpyrimidin-4-yl)-1H-benzimidazoles” (Bioorg Med Chem Lett, 2021).
In brackets after ≈: the same amount, converted by molar mass.

How the values were obtained:
Sclerotinia sclerotiorum = assay: Antifungal activity against Sclerotinia sclerotiorum assessed as inhibition of mycelia growth incubated for 48 hrs; assay type: functional, organism-based
Botrytis cinerea = assay: Antifungal activity against Botrytis cinerea assessed as inhibition of mycelia growth incubated for 48 hrs; assay type: functional, organism-based

| Compound | EC50 (Sclerotinia sclerotiorum) | EC50 (Botrytis cinerea) |
| --- | --- | --- |
| CCCCSc1nc(-c2ccc(OC)cc2)cc(-c2nc3ccccc3[nH]2)n1 | 16.4 µg/mL (≈ 41.9 µM) | 2.45 µg/mL (≈ 6.27 µM) |
| COc1ccc(-c2cc(-c3nc4ccccc4[nH]3)nc(SCc3ccccc3)n2)cc1 | 10.2 µg/mL (≈ 24 µM) | 0.28 µg/mL (≈ 0.66 µM) |
| CCCCSc1nc(-c2ccc(Cl)cc2)cc(-c2nc3ccccc3[nH]2)n1 | 20.6 µg/mL (≈ 52.1 µM) | 10.1 µg/mL (≈ 25.6 µM) |
| Clc1ccc(-c2cc(-c3nc4ccccc4[nH]3)nc(SCc3ccccc3)n2)cc1 | 14 µg/mL (≈ 32.6 µM) | 0.2 µg/mL (≈ 0.466 µM) |
| COC(=O)Nc1nc2ccccc2[nH]1 [CARBENDAZIM] | 13.3 µg/mL (≈ 69.7 µM) | 0.21 µg/mL (≈ 1.1 µM) |
| CSc1nc(-c2ccccc2)cc(-c2nc3ccccc3[nH]2)n1 | 45 µg/mL (≈ 141 µM) | 0.15 µg/mL (≈ 0.471 µM) |
| Fc1ccc(-c2cc(-c3nc4ccccc4[nH]3)nc(SCc3ccccc3)n2)cc1 | 4.65 µg/mL (≈ 11.3 µM) | 0.14 µg/mL (≈ 0.339 µM) |
| COc1ccc(-c2cc(-c3nc4ccccc4[nH]3)nc(SC)n2)cc1 | 23.5 µg/mL (≈ 67.4 µM) | 0.41 µg/mL (≈ 1.18 µM) |
| CCCCSc1nc(-c2ccc(F)cc2)cc(-c2nc3ccccc3[nH]2)n1 | 6.72 µg/mL (≈ 17.8 µM) | 0.16 µg/mL (≈ 0.423 µM) |
| CCCCSc1nc(-c2ccccc2)cc(-c2nc3ccccc3[nH]2)n1 | 22.3 µg/mL (≈ 61.9 µM) | 0.34 µg/mL (≈ 0.943 µM) |
| CSc1nc(-c2ccc(F)cc2)cc(-c2nc3ccccc3[nH]2)n1 | 16.6 µg/mL (≈ 49.5 µM) | 0.95 µg/mL (≈ 2.82 µM) |
| CSc1nc(-c2ccc(Cl)cc2)cc(-c2nc3ccccc3[nH]2)n1 | 17.3 µg/mL (≈ 49 µM) | 1.15 µg/mL (≈ 3.26 µM) |
| c1ccc(CSc2nc(-c3ccccc3)cc(-c3nc4ccccc4[nH]3)n2)cc1 | 8.95 µg/mL (≈ 22.7 µM) | 7.02 µg/mL (≈ 17.8 µM) |
